Measured values reported in US20020023385A1, “Method of controlling seed disease” (priority 2000, published 2002).

Test system: Xanthomonas campestris p.v. campestris
Assay: Cross-streak culture screening for antagonistic bacteria
Format: cell-based
Settings: cross application on potato dextrose-broth-agar medium, 25° C., 3 days
Protocol: Filamentous fungi and bacteria (hereinafter referred to as “candidate microorganisms” in general) isolated from a seed or a soil is streaked on a same medium as that of the pathogenic microorganisms of the seed borne disease which is a target to be controlled in a dual or cross manner and are cultured for several days under a temperature suitable for growing the pathogenic microorganisms (dual culture). After the microorganism have been cultured, growth thereof are observed; then, the one which apparently controlled the growth of the pathogenic microorganisms by the candidate microorganism is selected as the effective microorganism which has an antagonistic property (Laboratory Guide for Plant Pathology and Microbiology, 459-474, Satoshi Wakimoto et al., Soft Science Inc., 1993).
Each type of the above-described seeds was shaken in a physiological saline solution (a distilled water solution containing 0.85 weight % of sodium chloride) having 2.5 times the weight of the seeds for 2.5 hours. Then, the solution was evenly streaked on an albumin-agar culture medium. In six days after streaking, a colony which has emerged was isolated and, then, streaked on a potato dextrose-broth-agar culture medium (available from Difco Laborarories, Mich., U.S.A.) in a cross application manner against Xanthomonas campestris p.v. campestris to be cultured at 25° C. […] As a result, three bacterial strains under names of TK-12, TK-151, and TK-185 were obtained. Taxonomic properties of these three strains are shown below in Table 1.

| Substance | control of growth of Xanthomonas campestris p.v. campestris |
| --- | --- |
| Leclercia adecarboxylata TK-151 | controls growth of such Xanthomonas campestris p.v. campestris |
| Pantoea sp. TK-12 | controls growth of such Xanthomonas campestris p.v. campestris |
| Pantoea sp. TK-185 | controls growth of such Xanthomonas campestris p.v. campestris |
